This assay has as its target T1, 3β-hydroxysterol-Δ8,7-isomerase (D8D7I) (Homo sapiens, UniProt Q15125).
T1 construct: endogenous in cells; host or cells: B16F10 (murine) and SKMEL-28 (human) melanoma cells
The experiment in a line: D8D7I inhibition shown by Δ8-sterol accumulation in melanoma cells. Particulars: B16F10 and SKMEL-28, 2.5 µM DDA, 48 h; accumulation of zymostenol and 8-dehydrocholesterol. It is filed as cell-based. Here is the method: Sterols in cell homogenates were extracted with a solvent mixture containing chloroform/methanol 2/1 (v/v) spiked with epicoprostanol as the internal standard. Lipids were partitioned in chloroform after the addition of saline and saponified by methanolic potassium hydroxide (0.5 N, 60 °C, 15 min). The fatty acids released were methylated with BF3-methanol (12%, 60 °C, 15 min) to not interfere with the chromatography of sterols. The sterols were re-extracted in hexane and silylated, as described previously. […] Sterols were identified by the fragmentogram in the scanning mode and quantified by selective monitoring of the specific ions after normalization with the internal standard epicoprostanol and calibration with weighed standards.
Supplementary Fig. 2. DD A induce d th e accum ulation of cholestero l precursors in m elanom a cells. a Quantification of sterol accum ulation in cells after 48 h tr eatm ent with or without 2.5 µM DDA. […]
accum ulation. e Representative EM im ages of cells treated for 24 h with solvent vehicle (panels 1- 2) or 2.5 µM DDA (panels 3- 4). […] Cells were treated with solvent vehicle (control) or 2.5 µM DDA for 24 h with or without 1 µ M Baf A1, the n stained with MDC and obser ved by fluorescence m icroscopy. […]

Structures are written as SMILES.

T1 sequence (Q15125 whole entry, stated change not applied): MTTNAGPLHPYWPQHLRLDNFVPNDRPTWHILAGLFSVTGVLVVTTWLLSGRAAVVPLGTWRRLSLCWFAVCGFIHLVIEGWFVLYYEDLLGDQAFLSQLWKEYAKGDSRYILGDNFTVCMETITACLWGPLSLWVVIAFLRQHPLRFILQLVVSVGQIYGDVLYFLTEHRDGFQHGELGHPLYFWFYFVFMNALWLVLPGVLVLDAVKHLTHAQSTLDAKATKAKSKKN

Turning to `CC(C)CCC[C@@H](C)[C@H]1CC[C@H]2[C@@H]3C[C@@H](NCCc4cnc[nH]4)[C@@]4(O)C[C@@H](O)CC[C@]4(C)[C@H]3CC[C@]12C` [DDA, Dendrogenin A], the D8D7I inhibition entry was “inhibited D8D7I”.

The record behind these values is PMC5712521, “Dendrogenin A drives LXR to trigger lethal autophagy in cancers” (Nature Communications, 2017).
